Reference: patent US7745390B2, “Antimicrobial peptides” (priority 2005, dated 2010)
Bridge positions count the residues as written; N and C are the ends. Square brackets hold non-standard residues; d marks the D form. Ends that are not written are not given here. Peptide text beside a SMILES is read from it.

Legend:
Salmonella = format: cell-based, S. typhimurium; details: pH 7.2
Procedure, shortened: (§1)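 Single-well growth assay: peptide + bacteria (~5×10^6 CFU/ml) in 10 mM phosphate pH 7.2/0.03% LB, 3 h 37 °C; add LB, overnight; OD600. MIC = lowest conc., no growth; IC50 = 50% growth vs medium.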

E. coli DH5a = format: cell-based; details: DH5a, pH 7.2
Procedure, shortened: as §1

B. cereus = format: cell-based; details: pH 7.2
Procedure, shortened: as §1

Molecule: CSCC[C@@H](NC(=O)[C@@H](Cc1ccccc1)NC(=O)[C@@H](CCCCN)NC(=O)[C@@H](CCCCN)NC(=O)[C@@H](CO)NC(=O)[C@H](NC(=O)[C@@H](CCCCN)NC(=O)[C@@H](CCCCN)NC(=O)[C@@H](CO)NC(=O)CNC(=O)[C@@H](CCCCN)NC(=O)[C@@H](CCCCN)NC(=O)[C@@H](CCSC)NC(=O)[C@@H](Cc1ccccc1)NC(=O)[C@@H](CCCCN)NC(=O)[C@@H](CCCCN)NC(=O)[C@@H](CO)NC(=O)[C@H](NC(=O)[C@@H](CCCCN)NC(=O)[C@@H](CCCCN)NC(=O)[C@@H](CO)NC(=O)CNC(=O)[C@@H](CCCCN)NC(=O)[C@@H](CCCCN)NC(=O)[C@@H](CCSC)NC(=O)[C@@H](Cc1ccccc1)NC(=O)[C@@H](CCCCN)NC(=O)[C@@H](CCCCN)NC(=O)[C@@H](CO)NC(=O)[C@H](NC(=O)[C@@H](CCCCN)NC(=O)[C@H](N)CCCCN)C(C)C)C(C)C)C(C)C)C(=O)N[C@H](CCCCN)C(=O)N[C@H](CCCCN)C(=O)O [Peptide G11.55, kkvskkfmkkgskkvskkfmkkgskkvskkfmkk] (H-[dK][dK][dV][dS][dK][dK][dF][dM][dK][dK]G[dS][dK][dK][dV][dS][dK][dK][dF][dM][dK][dK]G[dS][dK][dK][dV][dS][dK][dK][dF][dM][dK][dK]-OH; N-terminus and C-terminus assumed)
- IC50 (Salmonella): > 10000 nM
- Salmonella MIC (Salmonella): >10 µM
- E. coli DH5a MIC (E. coli DH5a): 4 µM
- IC50 (E. coli DH5a): 980 nM
- B. cereus MIC (B. cereus): 0.2 µM
- IC50 (B. cereus): 100 nM

Molecule: QRSVSNAATRVCRT [Peptide G10, QRSVSNAATRVCRT, reference compound]
- IC50 (Salmonella): > 10000 nM
- Salmonella MIC (Salmonella): >10 µM
- E. coli DH5a MIC (E. coli DH5a): >10 µM
- IC50 (E. coli DH5a): > 10000 nM
- B. cereus MIC (B. cereus): >10 µM
- IC50 (B. cereus): > 10000 nM

Molecule: QRSVSRPPTRVSRPPRSRW [Peptide G13.13, QRSVSRPPTRVSRPPRSRW]
- IC50 (Salmonella): 1400 nM
- Salmonella MIC (Salmonella): >10 µM
- E. coli DH5a MIC (E. coli DH5a): 5.1 µM
- IC50 (E. coli DH5a): 380 nM
- B. cereus MIC (B. cereus): >10 µM
- IC50 (B. cereus): > 10000 nM

Molecule: CSCC[C@@H]1NC(=O)[C@H](Cc2ccccc2)NC(=O)[C@H](CCCCN)NC(=O)[C@H](CCCCN)NC(=O)[C@H](CO)NC(=O)[C@H](C(C)C)NC(=O)[C@H](CCCCN)NC(=O)[C@H](CCCCN)NC(=O)[C@@H](N)CSSC[C@@H](C(N)=O)NC(=O)[C@H](CCCCN)NC(=O)[C@H](CCCCN)NC(=O)[C@H](CCSC)NC(=O)[C@H](Cc2ccccc2)NC(=O)[C@H](CCCCN)NC(=O)[C@H](CCCCN)NC(=O)[C@H](CO)NC(=O)[C@H](C(C)C)NC(=O)[C@H](CCCCN)NC(=O)[C@H](CCCCN)NC(=O)[C@H](CO)NC(=O)CNC(=O)[C@H](CCCCN)NC(=O)[C@H](CCCCN)NC1=O [G11.31 CYC] (H-CKKVSKKFMKKGSKKVSKKFMKKC-NH2; disulfide 1-24; N-terminus assumed)
- IC50 (Salmonella): 410 nM
- Salmonella MIC (Salmonella): 0.7 µM
- E. coli DH5a MIC (E. coli DH5a): 0.61 µM
- IC50 (E. coli DH5a): 420 nM
- B. cereus MIC (B. cereus): 0.7 µM
- IC50 (B. cereus): 400 nM

Molecule: CSCC[C@H](NC(=O)[C@H](Cc1ccccc1)NC(=O)[C@H](CCCCN)NC(=O)[C@H](CCCCN)NC(=O)[C@H](CO)NC(=O)[C@@H](NC(=O)[C@H](CCCCN)NC(=O)[C@H](CCCCN)NC(=O)[C@H](CO)NC(=O)CNC(=O)[C@H](CCCCN)NC(=O)[C@H](CCCCN)NC(=O)[C@H](CCSC)NC(=O)[C@H](Cc1ccccc1)NC(=O)[C@H](CCCCN)NC(=O)[C@H](CCCCN)NC(=O)[C@H](CO)NC(=O)[C@@H](NC(=O)[C@H](CCCCN)NC(=O)[C@@H](N)CCCCN)C(C)C)C(C)C)C(=O)N[C@@H](CCCCN)C(=O)N[C@@H](CCCCN)C(=O)O [Peptide G11.15]
- IC50 (Salmonella): 410 nM
- Salmonella MIC (Salmonella): 0.7 µM
- E. coli DH5a MIC (E. coli DH5a): 1.38 µM
- IC50 (E. coli DH5a): 800 nM
- B. cereus MIC (B. cereus): >10 µM
- IC50 (B. cereus): 5850 nM

Molecule: CSCC[C@@H](NC(=O)[C@@H](Cc1ccccc1)NC(=O)[C@@H](CCCNC(=N)N)NC(=O)[C@@H](CCCNC(=N)N)NC(=O)[C@@H](CO)NC(=O)[C@H](NC(=O)[C@@H](CCCNC(=N)N)NC(=O)[C@H](N)CCCNC(=N)N)C(C)C)C(=O)N[C@H](CCCNC(=N)N)C(=O)N[C@H](CCCNC(=N)N)C(=O)O [Peptide G11.24, rrvsrrfmrr] (H-[dR][dR][dV][dS][dR][dR][dF][dM][dR][dR]-OH; N-terminus and C-terminus assumed)
- IC50 (Salmonella): 850 nM
- Salmonella MIC (Salmonella): 1.4 µM
- E. coli DH5a MIC (E. coli DH5a): 1.4 µM
- IC50 (E. coli DH5a): 850 nM
- B. cereus MIC (B. cereus): >10 µM
- IC50 (B. cereus): > 10000 nM

Molecule: QRSVSRAATRVSRTGRSRWRDVSRNFMRR [Peptide G8.2]
- IC50 (Salmonella): 550 nM
- Salmonella MIC (Salmonella): 1.4 µM
- E. coli DH5a MIC (E. coli DH5a): 1.4 µM
- IC50 (E. coli DH5a): 580 nM
- B. cereus MIC (B. cereus): 1.39 µM
- IC50 (B. cereus): 510 nM

Molecule: RRVSRRFMRRGSRRVSRRFMRRGSRRVSRRFMRR [Peptide G11.10]
- IC50 (Salmonella): 210 nM
- Salmonella MIC (Salmonella): 0.35 µM
- E. coli DH5a MIC (E. coli DH5a): 0.35 µM
- IC50 (E. coli DH5a): 210 nM
- B. cereus MIC (B. cereus): 0.35 µM
- IC50 (B. cereus): 210 nM

Molecule: GRSLWRDVSRNFMRR [Peptide G14.13, GRSLWRDVSRNFMRR]
- IC50 (Salmonella): 7600 nM
- Salmonella MIC (Salmonella): >10 µM
- E. coli DH5a MIC (E. coli DH5a): 5.6 µM
- IC50 (E. coli DH5a): 1850 nM
- B. cereus MIC (B. cereus): >10 µM
- IC50 (B. cereus): > 10000 nM

Molecule: RDVARRFMRRQSRVISRLV [Peptide G12.15, RDVARRFMRRQSRVISRLV]
- IC50 (Salmonella): 420 nM
- Salmonella MIC (Salmonella): 0.69 µM
- E. coli DH5a MIC (E. coli DH5a): 1.4 µM
- IC50 (E. coli DH5a): 890 nM
- B. cereus MIC (B. cereus): 2.8 µM
- IC50 (B. cereus): 1750 nM

Molecule: QRSVSRAATRVSRTGRSNWRDVGRRFMRR [Peptide G8.15]
- IC50 (Salmonella): 410 nM
- Salmonella MIC (Salmonella): 0.7 µM
- E. coli DH5a MIC (E. coli DH5a): 0.8 µM
- IC50 (E. coli DH5a): 450 nM
- B. cereus MIC (B. cereus): 0.7 µM
- IC50 (B. cereus): 450 nM

Molecule: RRVSRRFMRRYQSRVIQGLV [Peptide G12.6]
- IC50 (Salmonella): 900 nM
- Salmonella MIC (Salmonella): 1.45 µM
- E. coli DH5a MIC (E. coli DH5a): 1.45 µM
- IC50 (E. coli DH5a): 890 nM
- B. cereus MIC (B. cereus): 0.7 µM
- IC50 (B. cereus): 420 nM

Molecule: GRARWRDVARRFMRR [Peptide G14.9, GRARWRDVARRFMRR]
- IC50 (Salmonella): 440 nM
- Salmonella MIC (Salmonella): 0.65 µM
- E. coli DH5a MIC (E. coli DH5a): 1.38 µM
- IC50 (E. coli DH5a): 810 nM
- B. cereus MIC (B. cereus): 1.37 µM
- IC50 (B. cereus): 850 nM

Molecule: RDVSRRFMRRGRDVSRRFMRR [Peptide G11.38]
- IC50 (Salmonella): 820 nM
- Salmonella MIC (Salmonella): 1.35 µM
- E. coli DH5a MIC (E. coli DH5a): 0.7 µM
- IC50 (E. coli DH5a): 420 nM
- B. cereus MIC (B. cereus): 1.4 µM
- IC50 (B. cereus): 890 nM

Molecule: QRSVSRPPTRVSRTGRARW [Peptide G13.12, QRSVSRPPTRVSRTGRARW]
- IC50 (Salmonella): > 10000 nM
- Salmonella MIC (Salmonella): >10 µM
- E. coli DH5a MIC (E. coli DH5a): 5.65 µM
- IC50 (E. coli DH5a): 1750 nM
- B. cereus MIC (B. cereus): >10 µM
- IC50 (B. cereus): > 10000 nM
